Tests used:
TNF-α = test: In vitro measurement of TNF-α in human PBMC (LPS stimulated); format: cell-based
Description: In Vitro Measurement of Tumor Necrosis Factor Alpha (TNF-α)
This assay determines the effect of test compounds on the production of TNF α in human Peripheral Blood Mononuclear Cells (PBMC). Compounds were tested for their ability to inhibit the activity of TNF α in human PBMC. PBMC were isolated from blood (of healthy volunteers) using BD Vacutainer CPT™ (Cell preparation tube, BD Bio Science) and suspended in RPMI medium (Physiol. Res. 52: 593-598, 2003). The test compounds were pre-incubated with PBMC (0.5 million/incubation well) for 15 minutes at 37° C. and then stimulated with Lipopolysaccharide (Escherichia coli: B4; 1 μg/ml) for 18 hours at 37° C. in 5% CO2. The levels of TNF-α in the cell culture medium were estimated using enzyme-linked immunosorbent assay performed in a 96 well format as per the procedure of the manufacturer (Cayman Chemical, Ann Arbor, USA).

COX-2 = target: T1, COX-2 (Homo sapiens, UniProt P35354); test: Human whole blood assay (PGE-2 inhibition, COX-2); format: cell-based; conditions: LPS stimulated human whole blood, NA = No activity, read-out: % PGE-2 Inhibition in hWBA
T1 construct: Fresh blood was collected in tubes containing sodium heparin by vein puncture from healthy male volunteers; endogenous in cells; host or cells: human whole blood from healthy male volunteers, stimulated with LPS
T1 sequence (P35354 18-604): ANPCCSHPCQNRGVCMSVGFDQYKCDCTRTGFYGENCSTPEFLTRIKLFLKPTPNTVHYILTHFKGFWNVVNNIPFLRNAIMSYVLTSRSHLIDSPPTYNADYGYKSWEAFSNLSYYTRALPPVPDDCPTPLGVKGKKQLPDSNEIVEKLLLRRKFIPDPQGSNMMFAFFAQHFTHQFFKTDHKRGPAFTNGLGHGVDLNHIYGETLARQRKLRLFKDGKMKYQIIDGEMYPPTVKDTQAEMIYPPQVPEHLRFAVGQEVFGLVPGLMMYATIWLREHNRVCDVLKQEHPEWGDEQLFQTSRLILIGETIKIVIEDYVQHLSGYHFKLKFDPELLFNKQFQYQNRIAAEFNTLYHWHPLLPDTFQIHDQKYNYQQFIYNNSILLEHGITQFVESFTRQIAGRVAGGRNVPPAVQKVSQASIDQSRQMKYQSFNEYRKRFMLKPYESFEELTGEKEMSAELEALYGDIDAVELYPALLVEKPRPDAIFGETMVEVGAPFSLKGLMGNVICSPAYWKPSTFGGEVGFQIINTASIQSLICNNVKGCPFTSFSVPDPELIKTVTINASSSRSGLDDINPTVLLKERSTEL
Description: In Vitro Evaluation of Cyclooxygenase-2 (Cox-2) Inhibition Activity
The COX-2 inhibition activities of the compounds illustrated in the examples were determined by the following method.
Human whole blood provides a protein and cell rich milieu appropriate for the study of the biochemical efficacy of anti-inflammatory compounds such as selective COX-2 inhibitors. […] This correlates with the observation that COX-2 inhibitors have no effect on prostaglandin E2 (PGE2) production in normal blood. These inhibitors were active only after incubation of human blood with lipopolysaccharide (LPS), which induces COX-2 production in the blood.
Fresh blood was collected in tubes containing sodium heparin by vein puncture from healthy male volunteers. The subjects should have no apparent inflammatory conditions and should have not taken NSAIDs for at least 7 days prior to blood collection. Blood was preincubated with aspirin in vitro (12 μg/ml, at time zero) to inactivate COX-1 for 6 hours. Then test compounds (at various concentrations) or vehicle were added to blood, the blood was stimulated with LPS B:4 (10 μg/ml) and incubated for another 18 hours at 37° C. water bath. After which the blood was centrifuged, plasma was separated and stored at −80° C. (J. Pharmacol. Exp. Ther, 271, 1705, 1994; Proc. Natl. Acad. Sci. USA, 96, 7563, 1999). The plasma was assayed for PGE2 using Cayman ELISA kit as per the procedure outlined by the manufacturer (Cayman Chemicals, Ann Arbor, USA).

HCT-116 = test: Anti-cancer screen (MTT), HCT-116; format: cell-based; conditions: Homo sapiens, HCT-116, 48 hours
Description: (§1) Experimental drugs are screened for anti-cancer activity in three cell lines for their GI50, TG1 and LC50 values (using 5 concentrations for each compound). The cell lines are maintained in DMEM containing 10% fetal bovine serum. 96 well microtiter plates are inoculated with cells in […] for 24 hours at 37° C., 5% CO2, 95% air and 100% relative humidity. 5000 HCT116 cells/well, 5000 NCIH460 cells/well, 10000 U251 cells/well and 5000 MDAMB231 cells/well are plated. A separate plate with these cell lines is also inoculated to determine cell viability before the addition of the compounds (T0).
(§2) Addition of Experimental Drugs
(§3) Following 24-hour incubation, experimental drugs are added to the 96 well plates. Each plate contains one of the above cell lines and the following in triplicate: 5 different concentrations (0.01, 0.1, 1, 10 and 100 μM) of 4 different compounds, appropriate dilutions of a cytotoxic standard and control (untreated) wells. Compounds are dissolved in dimethylsulfoxide (DMSO) to make 20 mM stock solutions, on the day of drug addition and frozen at −20° C. Serial dilutions of these 20 mM stock solutions are made in complete growth medium such that 100 μL of these drug solutions in medium, of final concentrations equaling 0.01, 0.1, 1, 10 and 100 μM can be added to the cells in triplicate. Standard drugs whose anti-cancer activity has been well documented and which are regularly used are doxorubicin and SAHA.
(§4) Cells are incubated with compounds for 48 hours followed by the addition of 10 μL 3-(4,5-Dimethyl-2-thiazolyl)-2,5-diphenyl-2H-tetrazolium (MTT) solution per well and a subsequent incubation at 37° C., 5% CO2, 95% air and 100% relative humidity, protected from light. After 4 hours, well contents are aspirated carefully followed by addition of 150 μL DMSO per well. Plates are agitated to ensure solution of the formazan crystals in DMSO and absorbance read at 570 nm.
(§5) Calculation of GI50, TGI and LC50
(§6) Percent growth is calculated for each compound's concentration relative to the control and zero measurement wells (T0; viability right before compound addition).
(§7) If a test well's O.D. value is greater than the T0 measurement for that cell line % Growth=(test−zero)/(control−zero)×100
(§8) If a test well's O.D. value is lower than the T0 measurement for that cell line, then % Growth=(test−zero)/zero×100 Plotting % growth versus experimental drug concentration, GI50 is the concentration required to decrease % growth by 50%; TGI is the concentration required to decrease % growth by 100% and LC50 is the concentration required to decrease % growth by 150%.

NCI-H460 = test: Anti-cancer screen (MTT), NCI-H460; format: cell-based; conditions: Homo sapiens, NCI-H460, 48 hours
Description: as §1, §2, §3, §4, §5, §6, §7, §8

[1] = target: purified recombinant COX-1 (Homo sapiens, UniProt P23219); test: COX-1 enzyme based assay; format: biochemical; conditions: NA = No activity, read-out: % Inhibition in rEnzyme Assay COX-1
Chain of purified recombinant COX-1 (P23219 24-599): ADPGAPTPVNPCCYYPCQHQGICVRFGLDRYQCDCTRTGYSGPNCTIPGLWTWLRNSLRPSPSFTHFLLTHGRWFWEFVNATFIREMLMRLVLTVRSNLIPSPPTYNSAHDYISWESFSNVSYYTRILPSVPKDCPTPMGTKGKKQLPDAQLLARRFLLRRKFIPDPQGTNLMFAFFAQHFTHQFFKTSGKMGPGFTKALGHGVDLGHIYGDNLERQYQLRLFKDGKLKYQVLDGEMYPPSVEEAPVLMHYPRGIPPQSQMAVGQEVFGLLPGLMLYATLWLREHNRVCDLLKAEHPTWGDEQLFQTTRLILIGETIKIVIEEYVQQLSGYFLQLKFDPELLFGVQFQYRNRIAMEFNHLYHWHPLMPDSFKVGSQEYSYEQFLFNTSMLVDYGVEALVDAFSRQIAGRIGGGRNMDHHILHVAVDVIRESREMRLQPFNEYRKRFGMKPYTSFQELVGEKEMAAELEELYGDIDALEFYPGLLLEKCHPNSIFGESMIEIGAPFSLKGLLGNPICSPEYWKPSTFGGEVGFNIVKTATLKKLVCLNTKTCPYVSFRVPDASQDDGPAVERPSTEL
Description: (§9) COX-1 and COX-2 Enzyme Based Assay
(§10) COX-1 and COX-2 enzyme based assays were carried out to check the inhibitory potential of the test compounds on the production of prostaglandin by purified recombinant COX-1/COX-2 enzyme (Proc. Nat. Acad. Sci. USA, 88, 2692-2696, 1991; J. Clin. Immunoassay 15, 116-120, 1992) In this assay, the potential of the test compound to inhibit the production of prostaglandin either by COX-1 or COX-2 from arachidonic acid (substrate) was measured. This was an enzyme based in-vitro assay to evaluate selective COX inhibition with good reproducibility.
(§11) Arachidonic acid was converted to PGH2 (Intermediate product) by COX1/COX-2 in the presence or absence of the test compound. The reaction was carried out at 37° C. and after 2 minutes it was stopped by adding 1M HCl. Intermediate product PGH2 was converted to a stable prostanoid product PGF2αby SnCl2 reduction. The amount of PGF2α, produced in the reaction was inversely proportional to the COX inhibitory potential of the test compound. The prostanoid product was quantified via enzyme immunoassay (EIA) using a broadly specific antibody that binds to all the major forms of prostaglandin, using Cayman ELISA kit as per the procedure outlined by the manufacturer (Cayman Chemicals, Ann Arbor, USA).

[2] = target: T2, purified recombinant COX-2 (Homo sapiens, UniProt P35354); test: COX-2 enzyme based assay; format: biochemical; conditions: 10 μM; NA = No activity; read-out: % Inhibition in rEnzyme Assay COX-2
T2 sequence (P35354 18-604): T1 sequence (P35354 18-604)
Description: as §9, §10, §11

melting point [°C] | GI50 (HCT-116) [µM] | GI50 (NCI-H460) [µM] | SMILES | further results
207 to 210 | – | – | CS(=O)(=O)c1ccc(-c2nc(C(F)(F)F)nc(Cl)c2-c2ccc(S(=O)(=O)Cl)cc2)cc1 [Example 3, 4-{4-Chloro-6-[4-(methylsulfonyl)phenyl]-2-(trifluoromethyl)pyrimidin-5-yl}benzenesulfonyl chloride] | –
240 to 242 | – | – | O=C(NNc1nc(C(F)(F)F)nc(-c2ccncc2)c1-c1ccc(F)cc1)C(F)(F)F [Example 14, 2,2,2-Trifluoro-N′-[5-(4-fluorophenyl)-6-pyridin-4-yl-2-(trifluoromethyl)pyrimidin-4-yl]acetohydrazide] | inhibition at 1 µM (TNF-α; 1 μM, NA = No activity, read-out: TNF-α Inhibition (%) at Conc. (1 μM)): 25.5%; inhibition at 10 µM (TNF-α; 10 μM, read-out: TNF-α Inhibition (%) at Conc. (10 μM)): 67.5%
230 to 235 | – | – | CC(=O)NS(=O)(=O)c1ccc(-c2c(Cl)nc(C(F)(F)F)nc2-c2ccc(S(C)(=O)=O)cc2)cc1 [Example 17, N-[(4-{4-Chloro-6-[4-(methylsulfonyl)phenyl]-2-(trifluoromethyl)pyrimidin-5-yl}phenyl)sulfonyl]acetamide] | –
– | – | – | Cc1ccc(S(=O)(=O)Oc2nc(C(F)(F)F)nc(-c3ccc(S(C)(=O)=O)cc3)c2-c2ccccc2)cc1 [Example 22, 6-[4-(Methylsulfonyl)phenyl]-5-phenyl-2-(trifluoromethyl)pyrimidin-4-yl-4-methylbenzenesulfonate] | inhibition at 0.25 µM (COX-2; 0.25 μM): 15.6%; inhibition at 1 µM (COX-2; 1 μM): 20.4%; inhibition at 10 µM (COX-2; 10 μM): 36.4%
– | 3.5 | 3.8 | NS(=O)(=O)c1ccc(-c2nc(C(F)(F)F)nc(N3CCN(C(=O)c4ccc([N+](=O)[O-])o4)CC3)c2-c2ccc(F)cc2)cc1 [Example 40, 4-{5-[4-Fluorophenyl]-4-[4-(5-nitro-2-furoyl)piperazin-1-yl]-2-(trifluoromethyl)pyrimidin-6-yl}benzenesulfonamide] | –
– | 7 | 4 | NS(=O)(=O)c1ccc(-c2c(-c3ccc(F)cc3)nc(C(F)(F)F)nc2N2CCN(C(=O)c3ccc([N+](=O)[O-])o3)CC2)cc1 [Example 41, 4-{6-[4-Fluorophenyl]-4-[4-(5-nitro-2-furoyl)piperazin-1-yl]-2-(trifluoromethyl)pyrimidin-5-yl}benzenesulfonamide] | –
– | 26 | 4.5 | O=C(c1ccc([N+](=O)[O-])o1)N1CCN(c2nc(C(F)(F)F)nc(-c3ccncc3)c2-c2ccc(F)cc2)CC1 [Example 44, 5-[4-Fluorophenyl]-4-[4-(5-nitro-2-furoyl)piperazin-1-yl]-6-pyridin-4-yl-2-(trifluoromethyl)pyrimidine] | –
165 to 167 | – | – | FC(F)(F)c1nc(-c2ccccc2)c(-c2ccccc2)c(N2CCN(c3ccccn3)CC2)n1 [Example 48, 4,5-Diphenyl-6-(4-pyridin-2-yl-piperazin-1-yl)-2-(trifluoromethyl)pyrimidine] | –
– | 30 | 4 | NS(=O)(=O)c1cccc(-c2c(-c3ccccc3)nc(C(F)(F)F)nc2N2CCNCC2)c1 [Example 51, 3-[4-Phenyl-6-piperazin-1-yl-2-(trifluoromethyl)pyrimidin-5-yl]benzenesulfonamide] | inhibition at 1 µM ([1]; 1 μM): 8.27%; inhibition at 10 µM ([1]; 10 μM): 7.1%; inhibition at 10 µM [2]: 12.3%
– | 9.2 | 9 | NS(=O)(=O)c1cccc(-c2c(-c3ccc(F)cc3)nc(C(F)(F)F)nc2N2CCN(c3cccc(C(F)(F)F)c3)CC2)c1 [Example 73, 5-(3-Aminosulfonylphenyl)-4-(4-fluorophenyl)-2-(trifluoromethyl)-6-{4-[3-(trifluoromethyl)phenyl]piperazin-1-yl}pyrimidine] | –
– | 20 | 0.1 | CSc1nn(-c2nc(C(F)(F)F)nc(-c3ccncc3)c2-c2ccc(F)cc2)c(N)c1C(=O)Nc1ccc(C)c(C)c1 [Example 143, 5-Amino-N-(4,5-dimethylphenyl)-1-[5-(4-fluorophenyl)-6-pyridin-4-yl-2-(trifluoromethyl)pyrimidin-4-yl]-3-(methylthio)-1H-pyrazole-4-carboxamide] | –

Source: patent publication US7863446B2, “Heterocycles” (Orchid Research Laboratories Limited, priority 2006, dated 2011)
